Results taken from US6569878B1, “Substituted 4-amino-thiazol-2-yl compounds as cyclin-dependent kinase inhibitors” (Agouron Pharmaceuticals Inc., priority 1997, dated 2003).

These molecules were tested against T1, complex of human CDK4 and cyclin D3 (Homo sapiens, UniProt P11802) (assay: Inhibition of CDK4/cyclin D retinoblastoma kinase activity (D-type cyclin is D3)). Settings: superscript a: D-type cyclin is D3; apparent Ki; read-out: Ki CDK 4/D.
T1 construct: made in house; host or cells: insect cells, co-infected with baculovirus
T1 sequence (P11802 whole entry): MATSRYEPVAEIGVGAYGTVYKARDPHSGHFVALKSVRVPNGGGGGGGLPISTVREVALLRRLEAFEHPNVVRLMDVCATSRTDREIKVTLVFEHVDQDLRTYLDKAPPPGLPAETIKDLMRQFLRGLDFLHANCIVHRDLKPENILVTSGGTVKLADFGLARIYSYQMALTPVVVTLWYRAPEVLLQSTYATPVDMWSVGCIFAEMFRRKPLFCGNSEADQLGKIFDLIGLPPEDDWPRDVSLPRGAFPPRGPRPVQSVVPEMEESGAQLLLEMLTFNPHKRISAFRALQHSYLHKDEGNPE
T1 sequence (P30281 whole entry partner): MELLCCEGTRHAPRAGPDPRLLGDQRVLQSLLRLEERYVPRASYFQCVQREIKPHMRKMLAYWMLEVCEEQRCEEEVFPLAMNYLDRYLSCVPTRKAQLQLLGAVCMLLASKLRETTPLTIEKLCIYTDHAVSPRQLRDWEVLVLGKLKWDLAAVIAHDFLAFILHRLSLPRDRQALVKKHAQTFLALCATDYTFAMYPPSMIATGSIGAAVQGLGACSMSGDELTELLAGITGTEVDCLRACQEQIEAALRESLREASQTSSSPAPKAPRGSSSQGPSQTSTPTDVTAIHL
Type: biochemical
Description: Cyclin-dependent kinase activity was measured by quantifying the enzyme-catalyzed, time-dependent incorporation of radioactive phosphate from [^32P]ATP or [^33P]ATP into a protein substrate. […] Reactions were initiated with enzyme, incubated at 30° C., and terminated after 20 minutes by the addition of ethylenediaminetetraacetic acid (EDTA) to 250 mM. […] Radioactivity was quantified by exposing the dried membranes to a phosphorimager.
Apparent Ki values were measured by assaying enzyme activity in the presence of different inhibitor compound concentrations and subtracting the background radioactivity measured in the absence of enzyme. The kinetic parameters (kcat, Km for ATP) were measured for each enzyme under the usual assay conditions by determining the dependence of initial rates on ATP concentration. Inhibition data were fit to an equation for competitive inhibition using Kaleidagraph (Synergy Software), or were fit to an equation for competitive tight-binding inhibition using the software KineTic (BioKin, Ltd.).
Phosphorylated Rb substrate was captured by microfiltration on a nitrocellulose membrane and quantified using a phosphorimager as described above. For measurement of tight-binding inhibitors, the enzyme complex concentration was lowered to 5 nM, and the assay duration was extended to 60 minutes, during which the time-dependence of product formation was linear.

| SMILES | Ki [µM] |
| --- | --- |
| Nc1nc(Nc2ccc([N+](=O)[O-])cc2)sc1C(=O)c1ccccc1[N+](=O)[O-] [C(13), [4-Amino-2-(4-nitro-phenylamino)-thiazol-5-yl]-(2-nitro-phenyl)-methanone] | 0.051 |
| COC(=O)c1cccc(Nc2nc(N)c(C(=O)c3ccccc3OC)s2)c1 [C(26), Methyl 3-[4-Amino-5-(2-methoxy-benzoyl)-thiazol-2-ylamino]-benzoate] | 0.33 |
| N#Cc1cccc(Nc2nc(N)c(C(=O)c3ccccc3[N+](=O)[O-])s2)c1 [C(22)] | 0.067 |
| COc1ccccc1C(=O)c1sc(Nc2ccc3nc[nH]c3c2)nc1N [C(32), [4-Amino-2-(1H-benzoimidazol-6-ylamino)-thiazol-5-yl]-(2-methoxy-phenyl)-methanone] | 0.094 |
| Nc1nc(Nc2ccc(Sc3ncc(C(F)(F)F)cc3Cl)cc2)sc1C(=O)c1ccccc1[N+](=O)[O-] [C(25), {4-Amino-2-[4-(2-chloro-5-trifluoromethyl-pyridin-2-yl sulfanyl)-phenylamino]-thiazol-5-yl}-(2-nitro-phenyl)-methanone] | 1.3 |
| CC(C)c1ccc(Nc2nc(N)c(C(=O)c3ccccc3[N+](=O)[O-])s2)cc1 [C(15), [4-Amino-2-(4-isopropyl-phenylamino)-thiazol-5-yl]-(2-nitro-phenyl)-methanone] | 0.057 |
| Cc1c(C(=O)c2sc(Nc3ccc(N(C)C)cc3)nc2N)sc2ccc(Cl)cc12 [C(9)] | 0.74 |
| COc1ccc(C(=O)c2sc(Nc3ccc(OCc4ccccc4)cc3)nc2N)cc1 [C(2), [4-Amino-2-(4-benzyloxy-phenylamino)-thiazol-5-yl]-(4-methoxy-phenyl)-methanone] | > 5 |
| Nc1nc(Nc2cccnc2)sc1C(=O)c1ccc2ccccc2c1 [C(30), [4-Amino-2-(pyridin-3-ylamino)-thiazol-5-yl]-naphthalen-2-yl-methanone] | 1.4 |
| COC(=O)c1cccc(Nc2nc(N)c(C(=O)c3ccc4ccccc4c3)s2)c1 [I(15)] | 0.44 |
| Nc1ccc(C(=O)c2sc(Nc3ccccc3)nc2N)cc1 [D(2), (4-Amino-phenyl)-(4-amino-2-phenylamino-thiazol-5-yl)-methanone] | > 5 |
| COc1ccc(C(=O)c2sc(Nc3ccc(C)cc3)nc2N)c(OC)c1 [A(13), [4-Amino-2-(p-tolylamino)-thiazol-5-yl]-(2,4-dimethoxyphenyl)-methanone] | 0.25 |
| Nc1ccc(Nc2nc(N)c(C(=O)c3ccccc3)s2)cc1 [D(4), [4-Amino-2-(4-amino-phenylamino)-thiazol-5-yl]-phenyl-methanone] | 0.8 |
| Nc1nc(NCCc2ccc(Cl)cc2)sc1C(=O)c1ccccc1[N+](=O)[O-] [C(16), {4-Amino-2-[2-(4-chloro-phenyl)-ethylamino]-thiazol-5-yl}-(2-nitro-phenyl)-methanone] | 0.17 |
| CCN(CC)c1ccc(Nc2nc(N)c(C(=O)c3ccccc3[N+](=O)[O-])s2)cc1 [C(17), [4-Amino-2-(4-diethylamino-phenylamino)-thiazol-5-yl]-(2-nitro-phenyl)-methanone] | 0.072 |
| COc1ccccc1C(=O)c1sc(NCCc2ccc(Cl)cc2)nc1N [C(27), {4-Amino-2-[2-(4-chloro-phenyl)-ethylamino]-thiazol-5-yl}-(2-methoxy-phenyl)-methanone] | 1.02 |
| Cc1c(C(=O)c2sc(Nc3ccc(N(C)C)cc3)nc2N)sc2ccccc12 [C(7), [4-Amino-2-((4-dimethylaminophenyl)amino)-thiazol-5-yl]-(3-methyl-benzo[b]thiophen-2-yl)-methanone] | 0.51 |
| Nc1nc(Nc2cccnc2)sc1C(=O)c1ccccc1[N+](=O)[O-] [A(11), [4-Amino-2-(pyridin-3-ylamino)-thiazol-5-yl]-(2-nitro-phenyl)-methanone] | 0.13 |
| Nc1nc(Nc2ccccc2)sc1C(=O)c1ccc([N+](=O)[O-])cc1 [A(2), (4-Amino-2-phenylamino-thiazol-5-yl)-(4-nitrophenyl)-methanone] | ~0.3 |
| Nc1nc(Nc2ccc(S(N)(=O)=O)cc2)sc1C(=O)c1ccc(C(=O)O)cc1 [E(2), 4-[4-Amino-2-(4-sulfamoyl-phenylamino)-thiazole-5-carbonyl]-benzoic Acid] | 1.17 |
| COc1ccccc1C(=O)c1sc(Nc2cccnc2)nc1N [C(29), [4-Amino-2-(pyridin-3-ylamino)-thiazol-5-yl]-(2-methoxy-phenyl)-methanone] | 0.357 |

| SMILES | Ki [µM] |
| --- | --- |
| Nc1nc(NC2CCCCC2)sc1C(=O)c1ccc(F)cc1 [I(8)] | 4.3 |
| COC(=O)c1cccc(C(=O)c2sc(Nc3cccc([N+](=O)[O-])c3)nc2N)c1 [I(17)] | < 1 |
| CN(C)c1ccc(Nc2nc(N)c(C(=O)c3ccc(F)cc3)s2)cc1 [I(7)] | ~1.5 |
| Nc1nc(Nc2cccnc2)sc1C(=O)c1ccc(Cl)cc1Cl [C(28), [4-Amino-2-(pyridin-3-ylamino)-thiazol-5-yl]-(2,4-dichloro-phenyl)-methanone] | 0.24 |
| Cc1ccc(Nc2nc(N)c(C(=O)c3ccccc3)s2)cc1 [I(23)] | 1.5 |
| CN(C)c1ccc(Nc2nc(N)c(C(=O)c3ccccc3N)s2)cc1 [D(3), [4-Amino-2-(4-dimethylamino-phenylamino)-thiazol-5-yl]-(2-amino-phenyl)-methanone] | 0.38 |
| COc1cc(C(=O)c2sc(Nc3ccccc3)nc2N)cc(OC)c1OC [I(16)] | 1.88 |
| Cn1cccc1C(=O)c1sc(Nc2ccc3nc[nH]c3c2)nc1N [C(43), [4-Amino-2-(1H-benzimidazol-5-ylamino)-thiazol-5-yl]-(1-methyl-1H-pyrrol-2-yl)-methanone] | 0.315 |
| Nc1nc(NC2CCCCC2)sc1C(=O)c1ccccc1[N+](=O)[O-] [C(14), (4-Amino-2-cyclohexylamino-thiazol-5-yl)-(2-nitro-phenyl)-methanone] | 0.057 |
| COc1ccc(Nc2nc(N)c(C(=O)c3[nH]cnc3C)s2)cc1 [C(40), [4-Amino-2-(4-methoxy-phenylamino)-thiazol-5-yl]-(4-methyl-1H-imidazol-5-yl)-methanone] | 3.84 |
| CCN(CC)c1ccc(Nc2nc(N)c(C(=O)c3ccc([N+](=O)[O-])cc3)s2)cc1 [C(18), [4-Amino-2-(4-diethylamino-phenylamino)-thiazol-5-yl]-(4-nitro-phenyl)-methanone] | 12.9 |
| COCCCNc1nc(N)c(C(=O)c2ccccc2[N+](=O)[O-])s1 [C(23), [4-Amino-2-(3-methoxy-propylamino)-thiazol-5-yl]-(2-nitro-phenyl)-methanone] | 0.33 |
| Nc1nc(Nc2ccccc2)sc1C(=O)c1ccc(F)cc1 [I(11)] | 0.52 |
| CC(=O)c1ccc(Nc2nc(N)c(C(=O)c3sccc3C)s2)cc1 [C(44), 1-{4-[4-Amino-5-(3-methyl-thiophene-2-carbonyl)-thiazol-2-ylamino]-phenyl}-ethanone] | ~0.128 |
| Nc1nc(Nc2ccc3c(c2)OCO3)sc1C(=O)c1ccccc1[N+](=O)[O-] [C(11), [4-Amino-2-(benzo[1,3]dioxol-5-yl-amino)-thiazol-5-yl]-(2-nitro-phenyl)-methanone] | 0.13 |
| Cc1c(C(=O)c2sc(Nc3ccc(N4CCOCC4)cc3)nc2N)ncn1C [C(77), [4-Amino-2-(4-morpholin-4-yl-phenylamino)-thiazol-5-yl]-(1,5-dimethyl-1H-imidazol-4-yl)-methanone] | 3 |
| Cc1c(C(=O)c2sc(Nc3ccc4nc[nH]c4c3)nc2N)sc2ccc(Cl)cc12 [C(10), [4-Amino-2-(1H-benzoimidazol-6-yl-amino)-thiazol-5-yl]-(5-chloro-3-methyl-benzo[b]thiophen-2-yl)-methanone] | 0.68 |
| Nc1nc(Nc2ccc(I)cc2)sc1C(=O)c1ccccc1[N+](=O)[O-] [A(7), [4-Amino-2-(4-iodo-phenylamino)-thiazol-5-yl]-(2-nitro-phenyl)-methanone] | 0.31 |
| Nc1nc(NC2CCCCC2)sc1C(=O)c1ccc([N+](=O)[O-])cc1 [I(9)] | 2.5 |
| Cc1ccc(Nc2nc(N)c(C(=O)c3ccc(C)cc3C)s2)cc1 [A(14), [4-Amino-2-(p-tolylamino)-thiazol-5-yl]-(2,4-dimethylphenyl)-methanone] | 0.18 |
| COC(=O)c1cccc(Nc2nc(N)c(C(=O)c3cccc(OC)c3)s2)c1 [I(13)] | 2.4 |

Same assay, conditions: superscript a: D-type cyclin is D3; μM; read-out: Ki CDK 4/D

| SMILES | Ki [µM] |
| --- | --- |
| COC(=O)c1cccc(Nc2nc(N)c(C(=O)c3ccc(Br)cc3)s2)c1 [I(14)] | > 50 |
| COc1ccc(C(=O)Nc2nc(N)c(C(=O)c3ccccc3[N+](=O)[O-])s2)cc1 [I(18)] | > 25 |
| COc1ccc(C(=O)c2sc(Nc3ccccc3)nc2N)cc1 [I(10)] | > 20 |
| Nc1nc(Nc2ccc([N+](=O)[O-])cc2)sc1C(=O)c1ccccc1 [A(8), [4-Amino-2-(4-nitro-phenylamino)-thiazol-5-yl]-phenyl-methanone] | > 25 |
| COc1ccc(CNc2nc(N)c(C(=O)c3cc(C)sc3C)s2)cc1 [C(68), [4-Amino-2-(4-methoxy-benzylamino)-thiazol-5-yl]-(2,5-dimethylthiophen-3-yl)-methanone] | > 30 |
| Nc1nc(Nc2ccc(S(N)(=O)=O)cc2)sc1C(=O)c1ccc(OC(=O)c2ccccc2)cc1 [C(39)] | > 100 |
| CCC(Nc1nc(N)c(C(=O)c2ccc([N+](=O)[O-])cc2)s1)C(=O)OC (stereo in doubt) [C(6), Methyl 2(S)-[4-Amino-5-(4-nitro-benzoyl)-thiazol-2-ylamino]-butyrate] | > 10 |
